In the kinase profiling compilation of Christmann-Franck et al. (2016):

Tests used:
Assay in all cases: KINOMEscan competition binding
Settings in all cases: compound 10.0 µM
LIMK2 (human) = LIMK2 (human) (UniProt P53671)
NEK6 (human) = NEK6 (human) (UniProt Q9HC98)
MINK1 (human) = MINK1 (human) (UniProt Q8N4C8)
CSF1R (human) = CSF1R (human) (UniProt P07333)
MAP3K7 (human) = MAP3K7 (human) (UniProt O43318)
PTK6 (human) = PTK6 (human) (UniProt Q13882)
FGFR1 (human) = FGFR1 (human) (UniProt P11362)
TSSK1B (human) = TSSK1B (human) (UniProt Q9BXA7)
CLK2 (human) = CLK2 (human) (UniProt P49760)
FER (human) = FER (human) (UniProt P16591)
CSNK1D (human) = CSNK1D (human) (UniProt P48730)
HIPK1 (human) = HIPK1 (human) (UniProt Q86Z02)
CAMK4 (human) = CAMK4 (human) (UniProt Q16566)
MAPK14 (human) = MAPK14 (human) (UniProt Q16539)
TLK2 (human) = TLK2 (human) (UniProt Q86UE8)
CIT (human) = CIT (human) (UniProt O14578)
ADCK4 (human) = ADCK4 (human) (UniProt Q96D53)
MERTK (human) = MERTK (human) (UniProt Q12866)
MAPK7 (human) = MAPK7 (human) (UniProt Q13164)
ALK (human) = ALK (human) (UniProt Q9UM73)
MAP3K9 (human) = MAP3K9 (human) (UniProt P80192)
RAF1 (human) = RAF1 (human) (UniProt P04049)
LCK (human) = LCK (human) (UniProt P06239)
PAK2 (human) = PAK2 (human) (UniProt Q13177)
STK11 (human) = STK11 (human) (UniProt Q15831)
HCK (human) = HCK (human) (UniProt P08631)
CAMKK2 (human) = CAMKK2 (human) (UniProt Q96RR4)
PRKACB (human) = PRKACB (human) (UniProt P22694)
PDGFRA (human) = PDGFRA (human) (UniProt P16234)
CDK16 (human) = CDK16 (human) (UniProt Q00536)
INSR (human) = INSR (human) (UniProt P06213)
MARK4 (human) = MARK4 (human) (UniProt Q96L34)
NEK1 (human) = NEK1 (human) (UniProt Q96PY6)
PLK4 (human) = PLK4 (human) (UniProt O00444)
MYLK (human) = MYLK (human) (UniProt Q15746)
EPHA4 (human) = EPHA4 (human) (UniProt P54764)
CAMK2D (human) = CAMK2D (human) (UniProt Q13557)
ERBB4 (human) = ERBB4 (human) (UniProt Q15303)
IRAK3 (human) = IRAK3 (human) (UniProt Q9Y616)
[1] = test system: FLT3 (human), P36888 [ITD]
CHEK1 (human) = CHEK1 (human) (UniProt O14757)

FGFR1 (human), sequence (P11362 whole entry, looked up): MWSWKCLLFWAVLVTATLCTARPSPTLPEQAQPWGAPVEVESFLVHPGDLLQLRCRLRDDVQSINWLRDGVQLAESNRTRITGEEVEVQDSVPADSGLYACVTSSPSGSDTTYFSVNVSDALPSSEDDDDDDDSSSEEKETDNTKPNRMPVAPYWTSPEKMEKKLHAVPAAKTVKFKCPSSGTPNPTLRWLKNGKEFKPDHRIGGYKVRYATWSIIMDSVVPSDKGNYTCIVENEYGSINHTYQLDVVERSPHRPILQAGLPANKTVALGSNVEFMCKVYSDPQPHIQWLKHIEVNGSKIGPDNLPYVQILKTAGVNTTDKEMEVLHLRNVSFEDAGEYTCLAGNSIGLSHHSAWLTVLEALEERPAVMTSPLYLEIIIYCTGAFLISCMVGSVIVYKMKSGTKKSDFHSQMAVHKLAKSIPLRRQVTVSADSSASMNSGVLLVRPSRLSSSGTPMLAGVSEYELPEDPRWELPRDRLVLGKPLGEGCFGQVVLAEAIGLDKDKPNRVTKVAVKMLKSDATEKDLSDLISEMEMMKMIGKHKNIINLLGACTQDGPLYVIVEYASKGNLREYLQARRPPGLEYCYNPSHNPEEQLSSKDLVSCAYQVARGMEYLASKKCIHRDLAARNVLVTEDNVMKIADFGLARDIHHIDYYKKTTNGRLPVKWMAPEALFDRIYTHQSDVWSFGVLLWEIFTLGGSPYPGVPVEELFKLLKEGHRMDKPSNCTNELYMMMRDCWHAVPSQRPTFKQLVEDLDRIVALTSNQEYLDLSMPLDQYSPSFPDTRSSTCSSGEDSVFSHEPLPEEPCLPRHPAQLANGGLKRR
CAMKK2 (human), sequence (Q96RR4 whole entry, looked up): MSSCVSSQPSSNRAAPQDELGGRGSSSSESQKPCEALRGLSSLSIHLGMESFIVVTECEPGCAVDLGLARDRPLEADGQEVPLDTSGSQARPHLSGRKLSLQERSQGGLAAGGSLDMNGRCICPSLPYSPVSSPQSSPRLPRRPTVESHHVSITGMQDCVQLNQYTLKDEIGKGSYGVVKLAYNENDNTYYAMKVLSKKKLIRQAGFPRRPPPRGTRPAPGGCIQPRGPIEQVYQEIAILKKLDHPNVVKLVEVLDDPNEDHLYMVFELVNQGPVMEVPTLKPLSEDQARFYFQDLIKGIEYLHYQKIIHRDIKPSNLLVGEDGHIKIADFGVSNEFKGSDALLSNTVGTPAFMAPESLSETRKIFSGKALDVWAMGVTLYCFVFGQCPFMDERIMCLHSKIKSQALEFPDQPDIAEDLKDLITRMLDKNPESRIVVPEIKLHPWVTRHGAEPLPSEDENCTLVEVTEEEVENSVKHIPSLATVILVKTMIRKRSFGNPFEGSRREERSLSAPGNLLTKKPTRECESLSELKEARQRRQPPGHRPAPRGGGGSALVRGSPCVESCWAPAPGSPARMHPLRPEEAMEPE
HCK (human), sequence (P08631 whole entry, looked up): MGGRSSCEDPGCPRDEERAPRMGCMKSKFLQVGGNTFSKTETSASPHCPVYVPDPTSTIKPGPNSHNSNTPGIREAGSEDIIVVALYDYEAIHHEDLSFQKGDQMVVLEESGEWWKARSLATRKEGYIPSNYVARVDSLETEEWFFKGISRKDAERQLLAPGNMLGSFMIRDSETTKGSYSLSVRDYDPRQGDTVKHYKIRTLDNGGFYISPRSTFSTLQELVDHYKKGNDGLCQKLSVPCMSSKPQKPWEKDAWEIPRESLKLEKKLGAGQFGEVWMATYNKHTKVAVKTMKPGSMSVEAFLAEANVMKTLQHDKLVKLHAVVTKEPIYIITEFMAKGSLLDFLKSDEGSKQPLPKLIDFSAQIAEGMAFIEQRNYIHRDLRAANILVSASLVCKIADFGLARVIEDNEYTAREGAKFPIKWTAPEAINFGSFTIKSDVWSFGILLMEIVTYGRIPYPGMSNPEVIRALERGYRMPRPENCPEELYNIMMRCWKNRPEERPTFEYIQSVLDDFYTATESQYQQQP
MARK4 (human), sequence (Q96L34 whole entry, looked up): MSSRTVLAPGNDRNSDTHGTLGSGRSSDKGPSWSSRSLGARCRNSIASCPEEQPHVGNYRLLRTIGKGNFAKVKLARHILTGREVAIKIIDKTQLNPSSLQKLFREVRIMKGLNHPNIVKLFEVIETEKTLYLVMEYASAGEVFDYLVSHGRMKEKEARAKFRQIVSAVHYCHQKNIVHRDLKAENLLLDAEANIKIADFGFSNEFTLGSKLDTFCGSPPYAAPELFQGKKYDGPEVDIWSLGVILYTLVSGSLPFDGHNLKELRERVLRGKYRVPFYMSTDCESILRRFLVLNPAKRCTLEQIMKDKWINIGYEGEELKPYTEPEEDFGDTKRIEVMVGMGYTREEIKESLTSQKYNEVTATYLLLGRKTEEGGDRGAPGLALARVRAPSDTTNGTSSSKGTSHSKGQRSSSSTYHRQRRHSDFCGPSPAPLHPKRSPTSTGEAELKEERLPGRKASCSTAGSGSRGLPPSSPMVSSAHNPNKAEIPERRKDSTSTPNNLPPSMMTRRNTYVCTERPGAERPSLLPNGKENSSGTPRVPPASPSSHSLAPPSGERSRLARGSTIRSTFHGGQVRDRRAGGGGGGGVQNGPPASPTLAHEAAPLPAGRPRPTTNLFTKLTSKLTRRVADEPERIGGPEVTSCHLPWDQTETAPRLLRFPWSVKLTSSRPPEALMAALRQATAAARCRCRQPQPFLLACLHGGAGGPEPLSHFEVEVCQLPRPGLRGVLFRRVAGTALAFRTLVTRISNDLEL
FLT3 (human), P36888 [ITD], sequence (P36888 whole entry, looked up, change not shown): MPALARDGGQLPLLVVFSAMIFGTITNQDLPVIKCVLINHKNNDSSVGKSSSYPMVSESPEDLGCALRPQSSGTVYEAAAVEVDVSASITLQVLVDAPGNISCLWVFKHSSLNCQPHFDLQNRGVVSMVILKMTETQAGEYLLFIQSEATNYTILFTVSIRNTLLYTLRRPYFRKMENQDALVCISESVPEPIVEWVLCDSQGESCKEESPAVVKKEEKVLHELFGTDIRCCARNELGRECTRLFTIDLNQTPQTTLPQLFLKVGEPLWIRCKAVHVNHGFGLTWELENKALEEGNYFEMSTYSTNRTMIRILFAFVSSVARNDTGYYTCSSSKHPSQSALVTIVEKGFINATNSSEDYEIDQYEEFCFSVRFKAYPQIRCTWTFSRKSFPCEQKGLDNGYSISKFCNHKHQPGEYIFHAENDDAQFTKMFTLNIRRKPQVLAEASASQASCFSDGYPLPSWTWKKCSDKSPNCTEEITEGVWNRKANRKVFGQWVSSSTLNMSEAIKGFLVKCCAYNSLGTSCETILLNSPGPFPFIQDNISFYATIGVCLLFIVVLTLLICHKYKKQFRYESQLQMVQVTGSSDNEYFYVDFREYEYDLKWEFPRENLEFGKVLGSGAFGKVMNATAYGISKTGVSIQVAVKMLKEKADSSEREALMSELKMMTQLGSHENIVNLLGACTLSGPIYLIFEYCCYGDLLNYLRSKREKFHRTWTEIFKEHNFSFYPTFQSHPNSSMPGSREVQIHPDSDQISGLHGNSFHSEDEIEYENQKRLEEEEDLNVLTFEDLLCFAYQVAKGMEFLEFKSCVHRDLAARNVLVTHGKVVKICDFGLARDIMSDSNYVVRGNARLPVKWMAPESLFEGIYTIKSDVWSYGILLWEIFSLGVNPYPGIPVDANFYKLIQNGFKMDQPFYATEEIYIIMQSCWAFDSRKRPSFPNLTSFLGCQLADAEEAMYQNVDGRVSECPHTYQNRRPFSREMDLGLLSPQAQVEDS
MAP3K9 (human), sequence (P80192 whole entry, looked up): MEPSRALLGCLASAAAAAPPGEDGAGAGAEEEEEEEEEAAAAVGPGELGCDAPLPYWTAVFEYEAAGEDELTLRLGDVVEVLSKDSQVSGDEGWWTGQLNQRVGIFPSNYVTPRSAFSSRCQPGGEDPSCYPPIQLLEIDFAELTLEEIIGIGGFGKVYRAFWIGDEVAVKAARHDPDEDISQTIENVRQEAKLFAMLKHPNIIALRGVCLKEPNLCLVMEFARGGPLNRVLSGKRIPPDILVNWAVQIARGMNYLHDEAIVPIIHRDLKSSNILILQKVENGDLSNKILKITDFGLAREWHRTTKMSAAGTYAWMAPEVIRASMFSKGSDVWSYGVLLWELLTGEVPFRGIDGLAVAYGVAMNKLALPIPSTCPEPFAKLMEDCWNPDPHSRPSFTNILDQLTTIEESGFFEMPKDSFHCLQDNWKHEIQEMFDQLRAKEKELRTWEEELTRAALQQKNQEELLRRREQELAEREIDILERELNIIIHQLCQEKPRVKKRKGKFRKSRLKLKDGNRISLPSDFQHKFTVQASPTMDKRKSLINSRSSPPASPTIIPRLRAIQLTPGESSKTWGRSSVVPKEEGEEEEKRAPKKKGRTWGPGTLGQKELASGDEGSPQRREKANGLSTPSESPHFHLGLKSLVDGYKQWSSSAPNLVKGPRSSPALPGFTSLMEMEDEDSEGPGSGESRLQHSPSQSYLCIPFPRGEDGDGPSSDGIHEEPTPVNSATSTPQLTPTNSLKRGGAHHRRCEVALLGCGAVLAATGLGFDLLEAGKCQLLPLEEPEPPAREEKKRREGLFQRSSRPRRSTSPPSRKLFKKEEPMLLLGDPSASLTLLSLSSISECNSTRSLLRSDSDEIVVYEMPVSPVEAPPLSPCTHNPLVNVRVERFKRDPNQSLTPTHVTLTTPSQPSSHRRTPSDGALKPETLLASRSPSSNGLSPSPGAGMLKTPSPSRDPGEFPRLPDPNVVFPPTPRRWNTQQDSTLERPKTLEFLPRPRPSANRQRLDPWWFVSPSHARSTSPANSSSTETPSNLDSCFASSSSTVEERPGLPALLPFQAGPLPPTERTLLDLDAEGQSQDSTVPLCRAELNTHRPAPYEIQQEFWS

SMILES | kinase still bound, per cent of control (LIMK2 (human)) [%] | kinase still bound, per cent of control (NEK6 (human)) [%] | kinase still bound, per cent of control (MINK1 (human)) [%] | kinase still bound, per cent of control (CSF1R (human)) [%] | kinase still bound, per cent of control (MAP3K7 (human)) [%] | kinase still bound, per cent of control (PTK6 (human)) [%] | kinase still bound, per cent of control (FGFR1 (human)) [%] | kinase still bound, per cent of control (TSSK1B (human)) [%] | kinase still bound, per cent of control (CLK2 (human)) [%] | kinase still bound, per cent of control (HIPK1 (human)) [%] | kinase still bound, per cent of control (CAMK4 (human)) [%] | kinase still bound, per cent of control (MAPK14 (human)) [%] | kinase still bound, per cent of control (TLK2 (human)) [%] | kinase still bound, per cent of control (CIT (human)) [%] | kinase still bound, per cent of control (ADCK4 (human)) [%] | kinase still bound, per cent of control (MERTK (human)) [%] | kinase still bound, per cent of control (MAPK7 (human)) [%] | kinase still bound, per cent of control (MAP3K9 (human)) [%] | kinase still bound, per cent of control (LCK (human)) [%] | kinase still bound, per cent of control (PAK2 (human)) [%] | also measured
CCCS(=O)(=O)Nc1ccc(F)c(C(=O)c2c[nH]c3ncc(-c4ccc(Cl)cc4)cc23)c1F | 24 | 100 | 38 | 8 | 69 | 0.75 | 49 | 99 | 46 | 90 | 100 | 70 | 94 | 30 | 100 | 60 | 69 | 52 | 1.6 | 80 | kinase still bound, per cent of control (FER (human)): 54%; kinase still bound, per cent of control (CSNK1D (human)): 97%; kinase still bound, per cent of control (ALK (human)): 62%; kinase still bound, per cent of control (RAF1 (human)): 0.95%; kinase still bound, per cent of control (STK11 (human)): 75%; kinase still bound, per cent of control (HCK (human)): 13%; kinase still bound, per cent of control (CAMKK2 (human)): 100%; kinase still bound, per cent of control (PRKACB (human)): 100%; kinase still bound, per cent of control (PDGFRA (human)): 0.45%; kinase still bound, per cent of control (CDK16 (human)): 96%; kinase still bound, per cent of control (INSR (human)): 78%; kinase still bound, per cent of control (MARK4 (human)): 100%; kinase still bound, per cent of control (NEK1 (human)): 100%; kinase still bound, per cent of control (PLK4 (human)): 48%; kinase still bound, per cent of control (MYLK (human)): 91%; kinase still bound, per cent of control (EPHA4 (human)): 100%; kinase still bound, per cent of control (CAMK2D (human)): 100%
CCC(=O)N1CCN(c2ccc(-n3c(=O)ccc4cnc5ccc(-c6cnc7ccccc7c6)cc5c43)cc2C(F)(F)F)CC1 | 4.8 | 99 | 19 | 24 | 47 | 51 | 96 | 100 | 65 | 63 | 90 | 90 | 100 | 59 | 15 | 53 | 100 | 84 | 77 | 100 | kinase still bound, per cent of control (ERBB4 (human)): 100%; kinase still bound, per cent of control (CSNK1D (human)): 4.3%; kinase still bound, per cent of control (IRAK3 (human)): 27%; kinase still bound, per cent of control (ALK (human)): 80%; kinase still bound, per cent of control [1]: 29%; kinase still bound, per cent of control (RAF1 (human)): 48%; kinase still bound, per cent of control (STK11 (human)): 100%; kinase still bound, per cent of control (HCK (human)): 77%; kinase still bound, per cent of control (CAMKK2 (human)): 85%; kinase still bound, per cent of control (PRKACB (human)): 100%; kinase still bound, per cent of control (PDGFRA (human)): 63%; kinase still bound, per cent of control (CDK16 (human)): 91%; kinase still bound, per cent of control (INSR (human)): 7.6%; kinase still bound, per cent of control (MARK4 (human)): 100%; kinase still bound, per cent of control (NEK1 (human)): 89%; kinase still bound, per cent of control (PLK4 (human)): 100%; kinase still bound, per cent of control (MYLK (human)): 87%; kinase still bound, per cent of control (EPHA4 (human)): 90%; kinase still bound, per cent of control (CAMK2D (human)): 72%
O=C(O)c1ccc(Nc2ncc3c(n2)-c2ccc(Cl)cc2C(c2c(F)cccc2F)=NC3)cc1 | 94 | 100 | 100 | 38 | 80 | 77 | 14 | 90 | 7.4 | 14 | 66 | 93 | 83 | 37 | 95 | 3 | 100 | 70 | 1.6 | 71 | kinase still bound, per cent of control (ERBB4 (human)): 52%; kinase still bound, per cent of control (FER (human)): 22%; kinase still bound, per cent of control (IRAK3 (human)): 15%; kinase still bound, per cent of control (ALK (human)): 48%; kinase still bound, per cent of control [1]: 87%; kinase still bound, per cent of control (STK11 (human)): 92%; kinase still bound, per cent of control (CAMKK2 (human)): 72%; kinase still bound, per cent of control (PRKACB (human)): 58%; kinase still bound, per cent of control (PDGFRA (human)): 56%; kinase still bound, per cent of control (CDK16 (human)): 100%; kinase still bound, per cent of control (INSR (human)): 59%; kinase still bound, per cent of control (MARK4 (human)): 100%; kinase still bound, per cent of control (NEK1 (human)): 56%; kinase still bound, per cent of control (PLK4 (human)): 14%; kinase still bound, per cent of control (CHEK1 (human)): 91%; kinase still bound, per cent of control (MYLK (human)): 95%; kinase still bound, per cent of control (EPHA4 (human)): 11%; kinase still bound, per cent of control (CAMK2D (human)): 95%
CC[C@@H]1C(=O)N(C)c2cnc(Nc3ccc(C(=O)NC4CCN(C)CC4)cc3OC)nc2N1C1CCCC1 | 100 | 100 | 100 | 100 | 100 | 100 | 100 | 100 | 5.4 | 100 | 100 | 100 | 100 | 100 | 100 | 100 | 19 | 100 | 100 | 100 | kinase still bound, per cent of control (ERBB4 (human)): 100%; kinase still bound, per cent of control (FER (human)): 100%; kinase still bound, per cent of control (IRAK3 (human)): 100%; kinase still bound, per cent of control [1]: 100%; kinase still bound, per cent of control (RAF1 (human)): 100%; kinase still bound, per cent of control (STK11 (human)): 100%; kinase still bound, per cent of control (HCK (human)): 100%; kinase still bound, per cent of control (CAMKK2 (human)): 1.9%; kinase still bound, per cent of control (PRKACB (human)): 100%; kinase still bound, per cent of control (PDGFRA (human)): 100%; kinase still bound, per cent of control (CDK16 (human)): 100%; kinase still bound, per cent of control (MARK4 (human)): 100%; kinase still bound, per cent of control (NEK1 (human)): 100%; kinase still bound, per cent of control (PLK4 (human)): 100%; kinase still bound, per cent of control (CHEK1 (human)): 100%; kinase still bound, per cent of control (MYLK (human)): 3.6%; kinase still bound, per cent of control (EPHA4 (human)): 100%; kinase still bound, per cent of control (CAMK2D (human)): 100%
